Legend:
[1] = test system: four non-smoking volunteers (2 men and 2 women); experiment: Hedonic score, 11-point scale (0 very unpleasant to 10 very pleasant, 5 neutral); type: in vivo, human
Procedure: In this test, four non-smoking volunteers (2 men and 2 women) were chosen from 12 people for their performance in taste recognition. Their mean age was 32 years, ranging from 24 to 40 years. […] These four people were trained for several months to recognize and detect the four basic tastes, and also regarding the procedures of sensory and physiological analysis.
The four basic tastes (sweet, salty, sour and bitter) were used. The solutions were prepared with citric acid for the sour taste, caffeine for the bitter taste, sodium chloride for the salty taste and sucrose for the sweet taste (all purchased from Sigma Aldrich, France) in Evian water. Evian water was also used as control and blank. Each taste was prepared with the four concentrations mentioned in table 1.
The amount of solution to be tested was standardized at 10 ml. In order to impregnate the whole of the oral cavity, the subjects kept the solution in their mouth for 5 s before swallowing it.
The sessions were individual and the subjects were asked not to eat or drink anything for at least 1 h before the test. They arrived 15 min before the start of the session in order to acclimatize to the environmental conditions, in particular the temperature of the room (kept constant at 23° C.) and to be resting seated on a comfortable chair. The 16 solutions for testing and two additional samples of water containing solely Evian water, added to the references, were presented monadically following a test order determined from a “balanced incomplete block design”. During a session, 9 samples out of 18 were presented to minimize sensory fatigue. In addition, a sample of Evian was always tested as a “blank” sample in order to avoid the first-order effect (Lawless, H. T. & Heymann, H., 2010, Sensory evaluation of food: Principles and practices. Springer, New York) and was excluded from the analysis. A light signal was sent to give the instruction to test the sample. When the disturbance to the nervous system returned to its baseline level (after approximately 1 min), a second light signal indicated to the subjects that they should complete a questionnaire regarding the stimulus tested previously. The first part of the questionnaire was linked to the identification of the taste (i.e. determining the quality of the taste); the subjects had to choose between five labels: sweet, salty, sour, bitter or neutral. They then had to assign a taste intensity score on an 11-point scale (from 0 “not intense” (i.e. taste of Evian only) to 10 “very intense”) and finally to give a hedonic score on an 11-point scale (from 0 “very unpleasant” to 10 “very pleasant”, 5 being “neutral”).
This procedure was repeated for each of the 9 stimuli. A session lasted approximately 45 min including a debriefing at the end of the test to ensure understanding of the sense of the signal variations. The experiment was repeated 12 times per subject, meaning that the data are composed of 6 data sets per subject and per product and 12 data sets for the Evian product per subject. Thus, the database consists of 432 samples.
The effect of the taste on the hedonic and intensity scores was analyzed by an analysis of variance (ANOVA) including the product effect, the subject effect and the product-subject interaction. The subject effect was fixed because there were only 4 subjects and the results could only be applied to a particular schema. The differences were considered to be significant at a level of 0.05.

[2] = test system: subject 3; experiment: Skin blood microcirculation (SKBF) response to taste stimuli, PCA sensory space (ESRP); type: in vivo, human; conditions: concentration 4
Source text: A Periflux PF 5010 (Perimed AB, Sweden) system was chosen, which enables non-invasive monitoring of blood perfusion in the capillaries, arterioles and venules.
The unit of blood perfusion is arbitrary and corresponds to the product of the mean rate of displacement of the red blood cells by their concentration. The system Periflux PF 5010 has a 780 nm, 1 mm diameter laser beam without thermal effect. An optical fiber probe PR407 is used. The low-energy laser beam is transmitted by the probe to the tissue. A portion of the light reflects off the static structures and another portion of the light reflects off the moving blood cells. When the light reflects off a moving cell, the wavelength is modified, which corresponds to the Doppler effect. The scattered light collected by the optical fiber is used to calculate the perfusion value. The measurement is expressed in perfusion units (PU). Recording was carried out on the pad of the index finger of the non-dominant hand, due to the high level of vascularization of this zone. The perfusion signals were recorded by an 8-channel PowerLab PL35088/35 acquisition system; the data were collected at a frequency of 1 kHz and analyzed by the LabChart® software (AD instruments Ltd, United Kingdom).
. Then, the peak was analyzed manually by selecting the whole of the peak and analyzing it with the LabChart® software (FIG. 1).
Several shape parameters were extracted from the signal (i.e. amplitude, duration, gradient). […]
The SKBF responses were analyzed individually by one-way ANOVA (product effect), the subjects having their own “preferential channel” (Lacey, J. I., Bateman, D. E. & VanLEHN, R., 1953, Autonomic response specificity: An experimental study. Psychosomatic Medicine, 15, 8-21). […]

[3] = cited from earlier work; for detection threshold concentration of the basic taste: literature (Purves 2005; Robinson 2005); for detection threshold: representative compound of a primary taste

Compound | hedonic score ([1]; concentration 4 (highest)) | SKBF disturbance (signal width, area of the peak; ANOVA) [2] | detection threshold concentration of the basic taste [3] | detection threshold [3] | hedonic score ([1]; each of the NaCl concentrations (one value given))
O=C(O)CC(O)(CC(=O)O)C(=O)O [Citric acid, citric acid] | 3.3±2.4 | significantly stronger disturbance than the others | approximately 2 mmol·l^−1 | 0.384 to 0.5 g/L | 
[Cl-].[Na+] [NaCl, sodium chloride] |  | significantly stronger disturbance than the others | approximately 10 mmol·l^−1 | 0.584 g/L | 1.3±0.9
